A melting point compilation (Tetko et al.; mined from patent text by program, amines drawn as free bases though some values may be those of a salt)

Row | melting point | SMILES
1 | 230 to 233 °C | O=C(O)Cc1c(C(=O)c2ccc(-c3nccs3)cc2)[nH]c2cc(Cl)ccc12
2 | 199 to 200 °C | CC(N1C(=O)C(=O)N(c2ccc(Cl)cc2)C1=S)C(C)(C)C (stereo not given)
3 | 162 °C | O=C(/C=C/c1cccc(S(=O)(=O)N2CCN(c3cccc([N+](=O)[O-])c3)CC2)c1)NO
4 | 205 °C | O=C(O)c1ccc(-c2cc3ccccc3[nH]2)cc1
5 | 81 to 83 °C | O=C(COC(=O)Cc1ccccc1Nc1c(Cl)cccc1Cl)NCCO[N+](=O)[O-]
6 | 136 to 138 °C | CN(C(=O)OC(C)(C)C)c1cc(Oc2ccccc2N2CCCC2)ccc1N
7 | 171 to 172 °C | Nc1nc2ccccc2c2c1ncn2CCCCCS(=O)(=O)c1ccccc1
8 | 239 to 240 °C | Cn1ncc(/C=C/C(=O)Nc2ccc(CN3C(=O)COC3=O)cc2)c1-c1ccc(F)cc1
9 | 293 to 294 °C | CCCCc1nc2c(C)c(Cl)cc(C(=O)O)c2n1Cc1ccc(C(=O)O)cc1
10 | 61 to 62 °C | CCCc1nccn1N=Cc1ccccc1
11 | 178 to 179 °C | Nc1nc(OCc2ccccc2)nc2c1ncn2C1OC(CO)C(O)C1O (stereo not given)
12 | 170 to 171 °C | COc1cccc2c1C(=O)c1c(OC)cc(C(=O)N(C)OCc3ccccc3)cc1C2=O
13 | 165 to 166 °C | COc1ccc(S(=O)(=O)Nc2ccccc2Nc2cccc(O)c2)cc1
14 | 114 to 116 °C | O=C1OC2(CC(c3cccc(Oc4ccccc4)c3)=NO2)c2ccccc21 (stereo not given)
15 | 212 to 214 °C | NC(=O)N1Cc2ccccc2-c2ccccc2C1
16 | 58 to 60 °C | CC(=O)C[C@H]1CC[C@H](c2ccc(Cl)cc2)CC1
17 | 193 to 195 °C | CC(=O)Oc1cc2c(c3ccccc13)Nc1ccc(C)cc1S2
18 | 47 to 48 °C | c1ccc2c(c1)CC[C@H]1O[C@@H]21
19 | 122 to 124 °C | Clc1ccc(CN2CC=C(/C=C/c3ccc4c(c3)OCO4)CC2)cc1

Row | melting point | SMILES
20 | 167 to 169 °C | Clc1ccc(C(c2ccccc2)N2CCN(c3nc4cccc5c4n3CCC5)CC2)cc1 (stereo not given)
21 | 110 °C | CCOC(=O)c1sc2c(c1OC(C)=O)CN(Cc1ccccc1Cl)CC2
22 | 110 to 113 °C | Fc1ccc(Oc2ccc3nc(Cl)ncc3c2)c(F)c1
23 | 157 to 159 °C | CNc1nc(-c2cccc(Oc3ccccc3)c2)c2cc(OC)c(OC)cc2n1
24 | 135 to 137 °C | COc1ccc(-n2c(-c3sc(Nc4ccccc4)nc3-c3ccccc3)nc3ccccc3c2=O)cc1
25 | 174 to 175 °C | COC(=O)c1cc(-c2ccccc2)c(=O)n2ncc3ccccc3c12
26 | 99 to 100 °C | CC1(C)CC(=O)c2cc(C#N)c(N3CCCCC3)nc2C1
27 | 166 to 168 °C | COc1ccc(Cn2ncc(N3CCOCC3)c(C=NO)c2=O)cc1
28 | 267 to 270 °C | Cn1c(-c2ccccc2)nc2nc(-c3ccc(Cl)cc3)nn2c1=S
29 | 202 to 204 °C | Cc1cc(C2c3cc4c(cc3CC(C)NN2C(=O)NC(C)c2ccccc2)OCO4)ccc1[N+](=O)[O-] (stereo not given)
30 | 119 to 120 °C | Cc1ccc(-n2ccc3c(Cl)nn(C)c(=O)c32)c(C)c1
31 | 204 to 205 °C | O=C1C(C2=NCCS2)c2ccccc2N1C1=NCCS1 (stereo not given)
32 | 79 to 81 °C | BrCC(Br)c1ccc(-c2ccccc2)cc1 (stereo not given)
33 | 113 to 115 °C | CC(C)c1cccc(C(C)C)c1NC(=O)CN1CCN(CCCSc2nc3ccccc3s2)CC1
34 | 75 to 77 °C | CCCN(Cc1ccccc1)c1cccc(-c2nc(NC)nc3cc(OC)c(OC)cc23)c1
35 | 179 °C | Cc1ccnc(N=C2SC[C@@H]3Cc4ccccc4CN23)n1
36 | 63 to 67 °C | COC(=O)c1ccc(OCCNC(=O)C2Cc3ccccc3N2S(=O)(=O)c2ccc(-c3cccc(C(F)(F)F)c3)cc2)cc1Cl (stereo not given)
37 | 165 to 166 °C | COC(=O)c1ccc(COc2ccc3c(c2)CCN(C2CCN(C4CCC4)CC2)C3=O)cc1
38 | 178 to 182 °C | CCCCc1nc2c(N)nc3ccc(OCc4ccccc4)cc3c2n1CCCCNS(C)(=O)=O

Row | melting point | SMILES
39 | 95 to 98 °C | CN1C(=O)CC[C@]2(C)c3ccc(-c4cccc(NC(=O)C(C)(C)C)c4)cc3CC[C@@H]12
40 | 121 °C | CC(=O)Oc1ccc(C(=O)N2CCN(CC(C)(C)S)CC2)cc1
41 | 197 to 198 °C | CC(C)C(=O)Nc1ccc(OCc2ccccc2)c(Br)c1N(C)C
42 | 131 to 132 °C | CCOC(=O)C1(c2ccc(Cl)cc2)OCC2(CO1)c1ccccc1Oc1ccccc12
43 | 173 to 174 °C | Cc1ccccc1N1CCc2c(N)nc3c(C)cccc3c21
44 | 168 to 169 °C | O=c1oc(-c2ccc(OCc3ccc(Cl)c(Cl)c3)cc2)cc(O)c1SCCc1ccccc1
45 | 183 to 186 °C | Cc1nccn1-c1ccc(COc2cccc(C3(C(N)=O)CCOCC3)c2)cc1
46 | 111 to 113 °C | CC(C)(C)OC(=O)NCc1cccc(C2CCN(C(=O)c3ccc(C#Cc4ccccc4F)o3)CC2)c1
47 | 134 to 135 °C | O=[N+]([O-])c1cc2oc(-c3ccccc3)nc2cc1N1CCOCC1
48 | 171 to 172 °C | COc1ccc(C(CC(=O)Nc2ncccc2C)N2C(=O)c3ccccc3C2=O)cc1OC (stereo not given)
49 | 121 to 122 °C | C[C@@H](NC(=O)[C@H](Cc1ccc(OCc2ccccc2)cc1)NC(=O)[C@@H](N)COCc1ccccc1)C(=O)O
50 | 112 to 116 °C | Oc1ccc(C2COc3cc(O)ccc3C2c2ccc(OCCN3CCCC3)cc2)cc1 (stereo not given)
51 | 105 to 108 °C | CCCc1c(OCCCOc2ccccc2C(=O)O)ccc(C(C)=O)c1O
52 | 183 to 185 °C | O=C(NC(CCCl)c1ccccc1Br)c1c(F)cccc1F (stereo not given)
53 | 181 to 184 °C | O=[N+]([O-])c1cnc(Sc2nc(-c3ccc(Cl)cc3)n[nH]2)s1
54 | 57 to 59 °C | O=C(O)c1ccc(S(=O)(=O)Oc2ccc(CCc3c(Cc4ccccc4)sc4ccccc34)cc2)cc1O
55 | 124 to 132 °C | O=S(CCO)CCC(c1cc(F)ccc1F)S(=O)(=O)c1ccc(Cl)cc1 (stereo not given)
56 | 161 to 163 °C | CCCNC(=O)CCCn1c(CCC)nc2c(N)nc3ccccc3c21

Further lines, the compound ahead of its results:

Row | SMILES | melting point
57 | COC(=O)c1cc(C(C)=O)c(C)nc1C1=NC(C)(C(C)C)C(=O)N1 (stereo not given) | 118 to 120 °C
58 | COC(=O)c1cc(SC#N)c(N)cc1OC | 184 to 185 °C
59 | CC(=O)OC1CSC(Oc2cc(-c3cccnc3)ccc2Cl)C(OC(C)=O)C1OC(C)=O (stereo not given) | 155 °C
60 | CCOC(=O)c1cc2n(c1)CN(C(=O)OCC)c1c(OC)cccc1-2 | 172 to 174 °C
61 | CCCOc1cc(OCCC)c2c(=O)c(OCCC)c(-c3ccccc3)oc2c1 | 90 to 93 °C
62 | COc1ccc2[nH]cc(C=C3SC(=S)N(CC(=O)O)C3=O)c2c1 | 266 °C
63 | Nc1ncc(-c2ccc([N+](=O)[O-])c(Cl)c2Cl)c(N)n1 | 237 to 239 °C
64 | CCN(CC)c1cc(=S)ss1 | 93 °C
65 | CC(=O)Nc1ccn(C2CCC(CO)O2)c(=O)n1 (stereo not given) | 143 to 145 °C
66 | COC1CN(CC2CCCO2)CCC1NC(=O)c1cc(Cl)c(N)c2c1OCCC2 (stereo not given) | 158 °C
67 | CCc1c(CCC(=O)O)ccc2c1OCO2 | 127 to 128 °C
68 | COc1ccc(CCS(=O)(=O)CC2CCC2)cc1 | 52 °C
69 | CCOC(=O)c1oc2cc(-c3ccc(CO)cc3)ccc2c1C | 135 to 136 °C
70 | O=C1NC(C(Cl)(Cl)Cl)Oc2ccccc21 (stereo not given) | 175 to 177 °C
71 | C#CCSc1ccccc1C=CCN(O)C(N)=O | 141 to 142 °C
72 | CCOC(=O)Nc1ccc(OCc2ccc(Cl)nc2)cc1F | 139 °C
73 | CCc1cc(F)cc2c1OCC(C)(C)CC2(O)c1ccccn1 (stereo not given) | 100 °C
74 | C=CCNC(=O)C1=Cc2c1ccc(OC)c2OC | 98 to 99 °C
75 | CCCCOc1cc(/C=C/C(=O)NS(=O)(=O)CCC(C)C)n(Cc2ccc(C(F)(F)F)cc2Cl)n1 | 89.5 to 90.5 °C
76 | Fc1ccc(C=Nn2cncn2)cc1 | 118 to 120 °C
77 | COc1csc2ccc(C(=O)O)c(Cl)c12 | 185 to 192 °C
78 | COc1ccc2cc([C@H](C)C(=O)OCCS(=O)CCO)ccc2c1 (stereo not given in full) | 74 to 86 °C

Row | SMILES | melting point
79 | NC(=O)CC(C(N)=O)n1cccc1 (stereo not given) | 158 to 165 °C
80 | Oc1cc(F)cc(C2(O)CCOCC2)c1 | 158 to 160 °C
81 | Cc1cc(C)c(COc2cccc3c2C(=O)c2c(Cl)ccc(Cl)c2C3=O)c(C)c1 | 216 to 218 °C
82 | CC1(C)Cc2c(Cl)cccc2C1N=CNC#N (stereo not given) | 173 to 175 °C
83 | C=CC(c1ccc(C(C)C)cc1)c1c(C)c(NC=O)c(C)c(C)c1O (stereo not given) | 170 to 171 °C
84 | COC(=O)c1ccc(O)c(OC2CCCC2)c1 | 73 to 75 °C
85 | CNS(=O)(=O)c1ccc(C=C2C(C)=C(CC(=O)OC)c3cc(OC)ccc32)cc1 | 167 to 169 °C
86 | CCN(CC)C(=O)c1nc[nH]n1 | 173 to 174 °C
87 | CCCCCCCCOc1cnc(-c2ccc(CCCCCC(C)OC(C)=O)cc2)nc1 (single isomer, unassigned; (+)) | 73 to 74 °C
88 | COC(=O)CCc1cc(C(C)(C)C)c(O[Si](C)(C)Oc2c(C(C)(C)C)cc(CCC(=O)OC)cc2C(C)(C)C)c(C(C)(C)C)c1 | 122 to 129 °C
89 | O=C(O)COc1cccnc1Br | 172 to 174 °C
90 | O=C(NC1=NN(c2ccc(Cl)c(Cl)c2)CC1)C(F)(F)F | 181 to 183 °C
91 | CC(C)c1nc(N(C)S(C)(=O)=O)nc(-c2ccc(F)cc2)c1/C=C/C=O | 86.5 °C
92 | CCOc1ccc(C2=NN(CCCCBr)C(=O)[C@H]3CC=CC[C@@H]23)cc1OCC (relative stereo) | 73 to 75 °C
93 | COc1cc(C2C(=O)N(C)Cc3cc4c(cc32)OCCO4)cc(OC)c1OC (stereo not given) | 148 to 149 °C
94 | CCCCCCCCCCCCCCOc1cc(C(=O)Cl)ccc1OC | 60 to 61 °C
95 | CCCn1c(=O)c2[nH]c(/C=C/c3ccc4c(c3)OCCO4)nc2n(CCC)c1=O | > 275 °C
96 | CC1=C(c2ccncc2)CCC(=O)N1 | 175 to 177 °C
97 | CCS(=O)(=O)Nc1c(C)c(C)cc2nc(OC)c(OC)nc12 | 201 to 203 °C
98 | COc1cc(-c2cnc(N[N+](=O)[O-])[nH]c2=O)ccn1 | 194 to 196 °C
99 | N#Cc1sc2cc(N)ccc2c1Cl | 158 to 160 °C
100 | CC(C)(NC(N)=O)C(=O)NCCO[N+](=O)[O-] | 98 to 100 °C
